Reference: patent publication US20160185797A1, “ALKYNYL ALCOHOLS AND METHODS OF USE” (Genentech, Inc., priority 2013, published 2016)

What was measured:
[1] = test system: REL-A (p65) nuclear translocation in HeLa cells; assay: REL-A (p65) nuclear translocation assay in HeLa cells, TNF-α stimulated (classical NF-kB signaling), high content imaging; type: cell-based; details: Homo sapiens, HeLa, compound 4.5 h, then 10 ng/mL TNF-α for 30 minutes, read-out: REL-A HeLa Transloc Assay (IC50)
Protocol: (§1) Several assays were developed to profile the cellular activities of NIK inhibitors.
(§2) (2) A second set of cell assay are used to define the selectivity of NIK inhibitors toward inhibition of classical vs. non-classical NF-kB signaling and rely on quantification of the nuclear translocation of p52 (NF-kB2) and REL-A (p65) using high content cellular imaging. For the p52 (non-classical NF-kB signaling) nuclear translocation assay, HeLa cells are treated with different concentrations of compounds (0.2% DMSO final) in medium containing 10% fetal bovine serum and then stimulated with 100 ng/mL of an anti-lymphotoxin beta receptor antibody (R&D Systems) for 5 hours. In the REL-A nuclear translocation assay, HeLa cells are incubated with compounds (0.2% DMSO final) for 4.5 hours in medium containing 10% fetal bovine serum before stimulating them with 10 ng/mL tumor necrosis factor (TNF)-α (R&D Systems) for 30 minutes. Cells are fixed with 4% paraformaldehyde, permeabilized by adding 0.1% Triton X-100 in phosphate buffered saline, and then are incubated with either 2 ug/mL anti-p52 antibody (Millipore) or 400 ng/mL anti-REL-A (p65) antibody (Santa Cruz Biotechnology). Finally, the cells are incubated with an Alexa488-labeled secondary antibody (Invitrogen) and DRAQ5 DNA stain (Biostatus). Imaging is carried out using an Opera reader (Perkin Elmer) and data are analyzed with the aid of Acapella software (Perkin Elmer). The p52 or REL-Atranslocation into the nucleus is quantified by the ratio of the nuclear to cytoplasmic signal intensity. […] The compounds in listed in Table 1 have the corresponding inhibitory value (IC50 in micromolar) for NIK p52 Translocation Assay as set forth in Table 2.
(§3) The compounds in listed in Table 1 have the corresponding inhibitory values (IC50 in micromolar) for the Translocation Assays as set forth in Table 2.

[2] = target: T1, nuclear factor-kappa B (NF-kB)-inducing kinase (NIK) (Homo sapiens, UniProt Q99558); assay: NIK enzyme inhibition assay (Transcreener ADP fluorescence polarization, NIK ADP-FP); type: biochemical
T1 construct: made in house; host or cells: baculovirus-infected insect cells
T1 sequence (Q99558 whole entry): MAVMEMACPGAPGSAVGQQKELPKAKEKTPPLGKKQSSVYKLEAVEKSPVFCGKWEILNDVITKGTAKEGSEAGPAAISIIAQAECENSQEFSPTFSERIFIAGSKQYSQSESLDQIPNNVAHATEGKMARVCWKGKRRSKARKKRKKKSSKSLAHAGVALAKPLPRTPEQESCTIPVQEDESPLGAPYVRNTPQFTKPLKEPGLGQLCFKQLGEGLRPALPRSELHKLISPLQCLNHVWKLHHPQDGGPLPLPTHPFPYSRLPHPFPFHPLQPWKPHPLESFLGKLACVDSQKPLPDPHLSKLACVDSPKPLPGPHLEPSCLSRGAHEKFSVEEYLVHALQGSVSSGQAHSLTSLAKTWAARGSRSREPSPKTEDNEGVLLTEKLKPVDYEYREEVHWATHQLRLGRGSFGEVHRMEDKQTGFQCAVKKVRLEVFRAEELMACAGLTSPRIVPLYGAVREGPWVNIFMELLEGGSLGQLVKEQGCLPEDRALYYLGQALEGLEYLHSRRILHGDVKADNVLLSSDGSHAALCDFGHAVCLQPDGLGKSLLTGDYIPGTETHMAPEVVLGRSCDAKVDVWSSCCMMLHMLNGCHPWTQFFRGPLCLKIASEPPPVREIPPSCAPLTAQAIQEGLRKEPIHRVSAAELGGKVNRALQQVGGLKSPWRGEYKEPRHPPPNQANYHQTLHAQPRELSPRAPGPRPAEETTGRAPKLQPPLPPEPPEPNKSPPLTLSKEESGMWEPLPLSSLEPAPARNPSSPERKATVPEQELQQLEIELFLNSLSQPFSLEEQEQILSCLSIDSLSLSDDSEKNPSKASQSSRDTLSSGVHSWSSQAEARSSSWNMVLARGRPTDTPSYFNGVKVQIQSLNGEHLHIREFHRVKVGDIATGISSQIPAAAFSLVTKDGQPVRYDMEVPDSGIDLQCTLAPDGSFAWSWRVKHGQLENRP
Protocol: NIK Enzyme Inhibition Assay:
The ability of the nuclear factor-kappa B (NF-kB)-inducing kinase (NIK) to catalyze the hydrolysis of adenosine-5′-triphosphate (ATP) was monitored using the Transcreener ADP (adenosine-5′-diphosphate) assay (BellBrook Labs). […] Reactions were quenched by the addition of 20 mM 2,2′,2″,2′″-(ethane-1,2-diyldinitrilo)tetraacetic acid and 0.01% Brij 35. The tracer bound to the antibody was displaced by the ADP generated during the NIK reaction, which causes a decrease in fluorescence polarization that was measured by laser excitation at 633 nm with a Fluorescence Correlation Spectroscopy Plus reader (Evotec AG). Equilibrium dissociation constant (Ki) values for NIK inhibitors are calculated from plots of activity vs. inhibitor concentration using Morrison's quadratic equation that accounts for the potential of tight binding, and by also applying the conversion factor that accounted for competitive inhibition and the concentration of substrate used in the assay relative to its Michaelis constant (Km).

[3] = test system: p52 (NF-kB2) nuclear translocation in HeLa cells; assay: p52 (NF-kB2) nuclear translocation assay in HeLa cells, anti-lymphotoxin beta receptor antibody stimulated (non-classical NF-kB signaling), high content imaging; type: cell-based; details: Homo sapiens, 100 ng/mL anti-lymphotoxin beta receptor antibody for 5 hours, read-out: p52 HeLa Transloc Assay (IC50)
Protocol: as §1, §2, §3

| Compound | IC50 [1] [nM] | Ki [2] [nM] | IC50 [3] [nM] |
| --- | --- | --- | --- |
| CN1CCC(O)(C#Cc2cccc(-c3nc(C(N)=O)cn4ccnc34)c2)C1=O (stereo in doubt) [Example 45, 8-(3-[2-[(3S)-3-hydroxy-1-methyl-2-oxopyrrolidin-3-yl]ethynyl]phenyl)imidazo [1,2-a]pyrazine-6-carboxamide] | > 20000 | 0.39 | 122 |
| CN1CC[C@@](O)(C#Cc2cccc(-c3cccc(C(N)=O)n3)c2)C1=O [Example 1, 6-[3-[2-[(3R)-3-hydroxy-1-methyl-2-oxo-pyrrolidin-3-yl]ethynyl]phenyl]pyridine-2-carboxamide] | > 20000 |  | 93.2 |
| CN1CC[C@@](O)(C#Cc2cccc(-c3nc(C(N)=O)cc(N4CCOCC4)n3)c2)C1=O [Example 2, 2-[3-[2-[(3R)-3-hydroxy-1-methyl-2-oxo-pyrrolidin-3-yl]ethynyl]phenyl]-6-morpholino-pyrimidine-4-carboxamide] | > 20000 | 1.73 | 101 |
| CN1CC[C@@](O)(C#Cc2cccc(-c3ccnc(C(N)=O)n3)c2)C1=O [Example 3, 4-[3-[2-[(3R)-3-hydroxy-1-methyl-2-oxo-pyrrolidin-3-yl]ethynyl]phenyl]pyrimidine-2-carboxamide] | > 20000 |  | 674 |
| CN1CC[C@@](O)(C#Cc2cccc(-c3nc(C(N)=O)c4ccccc4n3)c2)C1=O [Example 4, 2-[3-[2-[(3R)-3-hydroxy-1-methyl-2-oxo-pyrrolidin-3-yl]ethynyl]phenyl]quinazoline-4-carboxamide] | > 20000 | 0.05 | 31.9 |
| CN1CC[C@@](O)(C#Cc2cccc(-c3nc(C(N)=O)cc(N4CCCC4)n3)c2)C1=O [Example 5, 2-[3-[2-[(3R)-3-hydroxy-1-methyl-2-oxo-pyrrolidin-3-yl]ethynyl]phenyl]-6-pyrrolidin-1-yl-pyrimidine-4-carboxamide] | > 20000 | 0.8 | 122 |
| COc1cc(C(N)=O)nc(-c2cccc(C#C[C@]3(O)CCN(C)C3=O)c2)n1 [Example 29, 2-[3-[2-[(3R)-3-hydroxy-1-methyl-2-oxo-pyrrolidin-3-yl]ethynyl]phenyl]-6-methoxy-pyrimidine-4-carboxamide] | > 20000 |  | 46.6 |
| CN1CC[C@@](O)(C#Cc2cccc(-c3cc4ccccc4c(C(N)=O)n3)c2)C1=O [Example 40, 3-[3-[2-[(3R)-3-hydroxy-1-methyl-2-oxo-pyrrolidin-3-yl]ethynyl]phenyl] isoquinoline-1-carboxamide] | > 8000 |  | 7.8 |
| CN1CC[C@@](O)(C#Cc2cccc(-c3ccc(N)c(C(N)=O)n3)c2)C1=O [Example 63, 3-amino-6-[3-[2-[(3R)-3-hydroxy-1-methyl-2-oxo-pyrrolidin-3-yl]ethynyl]phenyl]pyridine-2-carboxamide] | ≥ 20000 |  | 10.7 |
| COc1cc(C(N)=O)nc(-c2cccc(C#C[C@]3(O)CCN(C)C3=O)c2)c1 [Example 90, 6-[3-[2-[(3R)-3-hydroxy-1-methyl-2-oxo-pyrrolidin-3-yl]ethynyl]phenyl]-4-methoxy-pyridine-2-carboxamide] | ≥ 20000 |  | 16.8 |
| CN1CC[C@@](O)(C#Cc2cccc(-c3cncc(C(N)=O)n3)c2)C1=O [Example 154, 6-[3-[2-[(3R)-3-hydroxy-1-methyl-2-oxo-pyrrolidin-3-yl]ethynyl]phenyl]pyrazine-2-carboxamide] | > 2000 |  | 400 |
| CN1CC[C@@](O)(C#Cc2cc3c(c(-c4nccc(C(N)=O)n4)c2)CCN3)C1=O [Example 184, 2-[6-[2-[(3R)-3-hydroxy-1-methyl-2-oxo-pyrrolidin-3-yl]ethynyl]indolin-4-yl] pyrimidine-4-carboxamide] |  | 0.14 |  |
| COc1cc(C(N)=O)nc(-c2cccc(C#C[C@]3(O)CCN(C)C3=O)c2)c1F [Example 185, 5-fluoro-6-[3-[2-[(3R)-3-hydroxy-1-methyl-2-oxo-pyrrolidin-3-yl]ethynyl]phenyl]-4-methoxy-pyridine-2-carboxamide] |  | 0.5 |  |
| CN1CC[C@@](O)(C#Cc2cccc(-c3nc(C(N)=O)cc4c3OCC4)c2)C1=O [Example 186, 7-[3-[2-[(3R)-3-hydroxy-1-methyl-2-oxo-pyrrolidin-3-yl]ethynyl]phenyl]-2,3-dihydrofuro[1,3-c]pyridine-5-carboxamide] |  | 0.14 |  |
| CN1CC[C@@](O)(C#Cc2cccc(-c3ccc(C(F)F)c(C(N)=O)n3)c2)C1=O [Example 187, 3-(difluoromethyl)-6-[3-[2-[(3R)-3-hydroxy-1-methyl-2-oxo-pyrrolidin-3-yl]ethynyl]phenyl]pyridine-2-carboxamide] |  | 0.06 |  |
| CN1CC[C@@](O)(C#Cc2cccc(-c3nc(C(N)=O)ccc3C(F)F)c2)C1=O [Example 188, 5-(difluoromethyl)-6-[3[2-[(3R)-3-hydroxy-1-methyl-2-oxo-pyrrolidin-3-yl]ethynyl]phenyl]pyridine-2-carboxamide] |  | 9.53 |  |
| CN1CC[C@@](O)(C#Cc2cccc(-c3cc(OCC(F)(F)F)cc(C(N)=O)n3)c2)C1=O [Example 189, 6-[3-[2-[(3R)-3-hydroxy-1-methyl-2-oxo-pyrrolidin-3-yl]ethynyl]phenyl]-4(2,2,2-trifluoroethoxy)pyridine-2-carboxamide] |  | 0.15 |  |
| CN1CC[C@@](O)(C#Cc2cccc(-c3cc(-n4cc(F)cn4)cc(C(N)=O)n3)c2)C1=O [Example 190, 4-(4-fluoropyrazol-1-yl)-6-[3-[2-[(3R)-3-hydroxy-1-methyl-2-oxo-pyrrolidin-3-yl]ethynyl]phenyl]pyridine-2-carboxamide] |  | < 0.05 |  |
| COc1cc(C(N)=O)nc(-c2cc(C#C[C@]3(O)CCN(C)C3=O)c(F)cc2F)c1 [Example 191, 6[2,4-difluoro-5-[2-[(3R)-3-hydroxy-l-methy1-2-oxo-pyrrolidin-3-yl]ethynyl]phenyl]-4-methoxy-pyridine-2-carboxamide] |  | < 0.05 |  |
| CN1CC[C@@](O)(C#Cc2cccc(-c3nc(C(N)=O)c4c(n3)N(C)CC4)c2)C1=O [Example 192, 2-[3-[2-[(3R)-3-hydroxy-1-methyl-2-oxo-pyrrolidin-3-yl]ethynyl]phenyl]-7-methyl-5,6-dihydropyrrolo[2,3-d] pyrimidine-4-carboxamide] |  | 0.4 |  |
| CN1CC[C@@](O)(C#Cc2cccc(-c3nc(C(N)=O)c4cnn(C5CC5)c4n3)c2)C1=O [Example 193, 1-cyclopropyl-6-[3-[2-[(3R)-3-hydroxy-1-methyl-2-oxo-pyrrolidin-3-yl]ethynyl]phenyl]pyrazolo[3,4-d] pyrimidine-4-carboxamide] |  | < 0.1 |  |
| CN1CC[C@@](O)(C#Cc2cc(F)c(F)c(-c3ccc(N)c(C(N)=O)n3)c2)C1=O [Example 194, 3-amino-6-[2,3-difluoro-5-[2-[(3R)-3-hydroxy-l-methyl-2-oxo-pyrrolidin-3-yl]ethynyl]phenyl]pyridine-2-carboxamide] |  | < 0.05 |  |
| Cc1cc(-c2cccc(C#C[C@]3(O)CCN(C)C3=O)c2)nc(C(N)=O)c1O [Example 195, 3-hydroxy-6-[3-[2-[(3R)-3-hydroxy-1-methyl-2-oxo-pyrrolidin-3-yl]ethynyl]phenyl]-4-methyl-pyridine-2-carboxamide] |  | < 0.05 |  |
| CN1CC[C@@](O)(C#Cc2cc(-c3cnc(N)c(C(N)=O)n3)c3ncsc3c2)C1=O [Example 196, 3-amino-6-[6-[2-[(3R)-3-hydroxy-1-methyl-2-oxo-pyrrolidin-3-yl]ethynyl]-1,3-benzothiazol-4-yl]pyrazine-2-carboxamide] |  | 1 |  |
| CN1CC[C@@](O)(C#Cc2cccc(-c3cc(CO)cc(C(N)=O)n3)c2)C1=O [Example 197, 4-(hydroxymethyl)-6-[3-[2-[(3R)-3-hydroxy-1-methyl-2-oxo-pyrrolidin-3-yl]ethynyl]phenyl]pyridine-2-carboxamide] |  | 0.8 |  |
| COCc1cc(C(N)=O)nc(-c2cccc(C#C[C@]3(O)CCN(C)C3=O)c2)c1 [Example 198, 6-[3-[2-[(3R)-3-hydroxy-1-methyl-2-oxo-pyrrolidin-3-yl]ethynyl]phenyl]-4-(methoxymethyl)pyridine-2-carboxamide] |  | 0.5 |  |
| CCOc1cc(C(N)=O)nc(-c2cccc(C#C[C@]3(O)CCN(C)C3=O)c2)c1 [Example 199] |  | 0.4 |  |
| CN1CC[C@@](O)(C#Cc2cccc(-c3cc(N4CC(F)(F)C4)cc(C(N)=O)n3)c2)C1=O [Example 200, 4-(3,3-difluoroazetidin-1-yl)-6-[3-[2-[(3R)-3-hydroxy-1-methyl-2-oxo-pyrrolidin-3-yl]ethynyl]phenyl]pyridine-2-carboxamide] |  | < 0.05 |  |
